The values below come from patent US8653100B2 (AbbVie Inc., priority 2008, dated 2014).

Where a name gives a salt, the structure may show the parent alone.

Chain of human GlyT1c transporter (P48067 whole entry): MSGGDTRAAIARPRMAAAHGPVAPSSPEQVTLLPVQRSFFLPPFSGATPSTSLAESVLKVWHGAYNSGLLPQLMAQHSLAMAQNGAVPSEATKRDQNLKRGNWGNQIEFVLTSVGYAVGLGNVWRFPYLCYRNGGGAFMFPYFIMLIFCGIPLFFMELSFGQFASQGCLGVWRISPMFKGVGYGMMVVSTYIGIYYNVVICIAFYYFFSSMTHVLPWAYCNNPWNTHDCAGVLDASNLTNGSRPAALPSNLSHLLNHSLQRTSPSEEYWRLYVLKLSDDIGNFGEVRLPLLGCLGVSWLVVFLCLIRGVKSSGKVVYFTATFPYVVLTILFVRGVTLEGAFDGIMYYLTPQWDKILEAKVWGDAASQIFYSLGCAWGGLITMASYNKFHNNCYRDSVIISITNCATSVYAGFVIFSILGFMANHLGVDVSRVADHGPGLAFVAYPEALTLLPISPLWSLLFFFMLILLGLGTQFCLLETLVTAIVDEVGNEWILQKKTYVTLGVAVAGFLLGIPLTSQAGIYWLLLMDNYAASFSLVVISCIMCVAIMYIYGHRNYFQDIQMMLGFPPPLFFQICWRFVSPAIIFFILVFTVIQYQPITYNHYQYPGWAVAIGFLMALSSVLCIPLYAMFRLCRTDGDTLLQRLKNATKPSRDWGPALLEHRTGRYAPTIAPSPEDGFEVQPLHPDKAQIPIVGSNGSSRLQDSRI
Chain of human GlyT1c (P48067 whole entry): as above

The target in the first assay is human GlyT1c (Homo sapiens (Human), UniProt P48067). Kind of assay: [3H]-Glycine uptake into recombinant CHO cells expressing human GlyT1. The settings on record: hGlyT1c_5_CHO cells, 200 nM [3H]-glycine. In kind it is cell-based. How it is done:
[^3H]-Glycine uptake into recombinant CHO cells expressing human GlyT1: Human GlyT1c expressing recombinant hGlyT1c—5_CHO cells were plated at 20,000 cells per well in 96 well Cytostar-T scintillation microplates (Amersham Biosciences) and cultured to sub-confluency for 24 h. […] The plates were placed in a Wallac Microbeta (PerkinElmer) and continuously counted by solid phase scintillation spectrometry during up to 3 hours. […] IC50 calculations were made by four-parametric logistic nonlinear regression analysis (GraphPad Prism) using determinations within the range of linear increase of [^3H]-glycine incorporation between 60 and 120 min.
Consider `O=C(NCCOc1ccc2c(c1)C(C1(c3ccc(Cl)cc3)CCC1)NCC2)c1ccccc1` (stereo not drawn) [Example 3, N-(2-{1-[1-(4-Chloro-phenyl)-cyclobutyl]-1,2,3,4-tetrahydro-isoquinolin-7-yloxy}-ethyl)-benzamide], for which the IC50 is at most 10 µM.

In the case of `CC(C)C(=O)NCCOc1ccc2c(c1)C(C1(c3ccc(Cl)cc3)CCC1)NCC2` (stereo not drawn) [Example 5, N-(2-{1-[1-(4-Chloro-phenyl)-cyclobutyl]-1,2,3,4-tetrahydro-isoquinolin-7-yloxy}-ethyl)-isobutyramide], the IC50 was at most 100 µM.

On to `CC(=O)NCCOc1ccc2c(c1)C(C1(c3ccc(Cl)cc3)CCC1)NCC2` (stereo not drawn) [Example 6, N-(2-{1-[1-(4-Chloro-phenyl)-cyclobutyl]-1,2,3,4-tetrahydro-isoquinolin-7-yloxy}-ethyl)-acetamide], for which the IC50 was at most 10 µM.

Take `CCCNC(=O)NCCOc1ccc2c(c1)C(C1(c3ccc(Cl)cc3)CCC1)NCC2` (stereo not drawn) [Example 33, 1-(2-{1-[1-(4-Chloro-phenyl)-cyclobutyl]-1,2,3,4-tetrahydro-isoquinolin-7-yloxy}-ethyl)-3-propyl-urea hydrochloride]: the IC50 is at most 10 µM.

As to `O=C(NCCOc1ccc2c(c1)C(C1(c3ccc(Cl)cc3)CCC1)NCC2)Nc1ccccc1` (stereo not drawn) [Example 34, hydrochloride], the IC50 is at most 10 µM.

`Cc1nn(C)cc1S(=O)(=O)NCCOc1ccc2c(c1)C(C1(c3ccc(Cl)cc3)CCC1)NCC2` (stereo not drawn) [Example 35, 1,3-Dimethyl-1H-pyrazole-4-sulfonic acid (2-{1-[1-(4-chloro-phenyl)-cyclobutyl]-1,2,3,4-tetrahydro-isoquinolin-7-yloxy}-ethyl)-amide hydrochloride]: the IC50 was at most 1 µM.

The target of another assay is human GlyT1c transporter (Homo sapiens (Human), UniProt P48067). Nature of the assay: Radioligand binding assay using recombinant CHO cell membranes expressing human GlyT1. As to conditions: examples 88-204, radioligand not specified by footnote, read-out: radioligand binding Kiapp. In outline:
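Apparent Ki values were derived by Cheng-Prusoff from one-site IC50 fits of displacement curves. Membranes from recombinant CHO cells (human GlyT1c, 50 μg/ml) were incubated 1 h at room temperature with 0.5 nM [^3H]-(R)-NPTS and test compound (1% DMSO, pH 7.5 buffer), with 10 μM Org24598 for non-specific binding, then filtered and counted.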
With `O=S(=O)(CCN1CCCCC1)NCCOc1ccc2c(c1)C(C1(c3ccc(Cl)cc3)CCC1)NCC2` (stereo not drawn) [Example 161, N-[2-({1-[1-(4-Chlorophenyl)cyclobutyl]-1,2,3,4-tetrahydroisoquinolin-7-yl}oxy)ethyl]-2-(piperidin-1-yl)ethanesulfonamide (2E)-but-2-enedioate], the Ki was at most 1 µM.

As to `CNc1nnc(S(=O)(=O)NCCOc2ccc3c(c2)C(C2(c4ccc(Cl)cc4)CCC2)NCC3)s1` (stereo not drawn) [Example 162, N-[2-({1-[1-(4-Chlorophenyl)cyclobutyl]-1,2,3,4-tetrahydroisoquinolin-7-yl}oxy)ethyl]-5-(methylamino)-1,3,4-thiadiazole-2-sulfonamide hydrochloride], the Ki was at most 1 µM.

`Nc1ncc(S(=O)(=O)NCCOc2ccc3c(c2)C(C2(c4ccc(Cl)cc4)CCC2)NCC3)s1` (stereo not drawn) [Example 163, 2-Amino-N-[2-({1-[1-(4-chlorophenyl)cyclobutyl]-1,2,3,4-tetrahydroisoquinolin-7-yl}oxy)ethyl]-1,3-thiazole-5-sulfonamide dihydrochloride]: the Ki is at most 1 µM.

Turning to `O=S(=O)(NCCOc1ccc2c(c1)C(C1(c3ccc(Cl)cc3)CCC1)NCC2)C1CNC1` (stereo not drawn) [Example 166, N-[2-({1-[1-(4-Chlorophenyl)cyclobutyl]-1,2,3,4-tetrahydroisoquinolin-7-yl}oxy)ethyl]azetidine-3-sulfonamide (2E)-but-2-enedioate], the Ki is at most 1 µM.

On to `CC(C)NCCS(=O)(=O)NCCOc1ccc2c(c1)C(C1(c3ccc(Cl)cc3)CCC1)NCC2` (stereo not drawn) [Example 169, N-[2-({1-[1-(4-Chlorophenyl)cyclobutyl]-1,2,3,4-tetrahydroisoquinolin-7-yl}oxy)ethyl]-2-(propan-2-ylamino)ethanesulfonamide], for which the Ki is at most 1 µM.

`O=C(OCc1ccccc1)N1CCC(S(=O)(=O)NCCOc2ccc3c(c2)C(C2(c4ccc(Cl)cc4)CCC2)NCC3)C1` (stereo not drawn) [Example 170, Benzyl 3-{[2-({1-[1-(4-chlorophenyl)cyclobutyl]-1,2,3,4-tetrahydroisoquinolin-7-yl}oxy)ethyl]sulfamoyl}pyrrolidine-1-carboxylate]: the Ki is at most 1 µM.

On to `CCCS(=O)(=O)NCCOc1ccc2c(c1)C(C1(c3ccc(Cl)cc3)CCC1)N(C(C)=O)CC2` (stereo not drawn) [Example 171, N-[2-({2-Acetyl-1-[1-(4-chlorophenyl)cyclobutyl]-1,2,3,4-tetrahydroisoquinolin-7-yl}oxy)ethyl]propane-1-sulfonamide], for which the Ki was at most 10 µM.

As for `O=S(=O)(NCCOc1ccc2c(c1)C(C1(c3ccc(Cl)cc3)CCC1)NCC2)c1ccc(Oc2ccccc2)nc1` (stereo not drawn) [Example 173, N-[2-({1-[1-(4-Chlorophenyl)cyclobutyl]-1,2,3,4-tetrahydroisoquinolin-7-yl}oxy)ethyl]-6-phenoxypyridine-3-sulfonamide hydrochloride], the Ki is at most 10 µM.

For `CCCS(=O)(=O)N(CCN)CCOc1ccc2c(c1)C(C1(c3ccc(Cl)cc3)CCC1)NCC2` (stereo not drawn) [Example 174, N-(2-Aminoethyl)-N-[2-({1-[1-(4-chlorophenyl)cyclobutyl]-1,2,3,4-tetrahydroisoquinolin-7-yl}oxy)ethyl]propane-1-sulfonamide dihydrochloride], the Ki was at most 10 µM.

As for `O=S(=O)(NCCOc1ccc2c(c1)C(C1(c3ccc(Cl)cc3)CCC1)NCC2)C1CCN(Cc2ccccc2)CC1` (stereo not drawn) [Example 177, 1-Benzyl-N-[2-({1-[1-(4-chlorophenyl)cyclobutyl]-1,2,3,4-tetrahydroisoquinolin-7-yl}oxy)ethyl]piperidine-4-sulfonamide hydrochloride], the Ki is at most 10 µM.

As to `CNCCCS(=O)(=O)NCCOc1ccc2c(c1)C(C1(c3ccc(Cl)cc3)CCC1)NCC2` (stereo not drawn) [Example 178, N-[2-({1-[1-(4-Chlorophenyl)cyclobutyl]-1,2,3,4-tetrahydroisoquinolin-7-yl}oxy)ethyl]-3-(methylamino)propane-1-sulfonamide (2E)-but-2-enedioate], the Ki is at most 10 µM.

As to `CC(=O)N1CC(S(=O)(=O)NCCOc2ccc3c(c2)C(C2(c4ccc(Cl)cc4)CCC2)NCC3)C1` (stereo not drawn) [Example 180, 1-Acetyl-N-[2-({1-[1-(4-chlorophenyl)cyclobutyl]-1,2,3,4-tetrahydroisoquinolin-7-yl}oxy)ethyl]azetidine-3-sulfonamide di[(2E)-but-2-enedioate]], the Ki is at most 10 µM.

As for `NCCCCS(=O)(=O)NCCOc1ccc2c(c1)C(C1(c3ccc(Cl)cc3)CCC1)NCC2` (stereo not drawn) [Example 184, 4-Amino-N-[2-({1-[1-(4-chlorophenyl)cyclobutyl]-1,2,3,4-tetrahydroisoquinolin-7-yl}oxy)ethyl]butane-1-sulfonamide (2E)-but-2-enedioate], the Ki is at most 10 µM.

As for `CN1CCOc2cc(S(=O)(=O)NCCOc3ccc4c(c3)C(C3(c5ccc(Cl)cc5)CCC3)NCC4)cnc21` (stereo not drawn) [Example 185, N-[2-({1-[1-(4-Chlorophenyl)cyclobutyl]-1,2,3,4-tetrahydroisoquinolin-7-yl}oxy)ethyl]-4-methyl-3,4-dihydro-2H-pyrido[3,2-b][1,4]oxazine-7-sulfonamide hydrochloride], the Ki is at most 10 µM.

As to `CC(=O)Nc1ncc(S(=O)(=O)NCCOc2ccc3c(c2)C(C2(c4ccc(Cl)cc4)CCC2)NCC3)s1` (stereo not drawn) [Example 188, N-(5-{[2-({1-[1-(4-Chlorophenyl)cyclobutyl]-1,2,3,4-tetrahydroisoquinolin-7-yl}oxy)ethyl]sulfamoyl}-1,3-thiazol-2-yl)acetamide hydrochloride], the Ki was at most 10 µM.

Regarding `O=S(=O)(NCCOc1ccc2c(c1)C(C1(c3ccc(Cl)cc3)CCC1)NCC2)c1ccc(N2CCOCC2)nc1` (stereo not drawn) [Example 189, N-[2-({1-[1-(4-Chlorophenyl)cyclobutyl]-1,2,3,4-tetrahydroisoquinolin-7-yl}oxy)ethyl]-6-(morpholin-4-yl)pyridine-3-sulfonamide hydrochloride], the Ki was at most 10 µM.

As to `O=S(=O)(NCCOc1ccc2c(c1)C(C1(c3ccc(Cl)cc3)CCC1)NCC2)C1CCNCC1` (stereo not drawn) [Example 190, N-[2-({1-[1-(4-Chlorophenyl)cyclobutyl]-1,2,3,4-tetrahydroisoquinolin-7-yl}oxy)ethyl]piperidine-4-sulfonamide dihydrochloride], the Ki was at most 10 µM.

Turning to `NC(=O)Nc1ccc(S(=O)(=O)NCCOc2ccc3c(c2)C(C2(c4ccc(Cl)cc4)CCC2)NCC3)cc1` (stereo not drawn) [Example 191, 4-(Carbamoylamino)-N-[2-({1-[1-(4-chlorophenyl)cyclobutyl]-1,2,3,4-tetrahydroisoquinolin-7-yl}oxy)ethyl]benzenesulfonamide hydrochloride], the Ki was at most 10 µM.

For `O=S(=O)(NCCOc1ccc2c(c1)C(C1(c3ccc(Cl)cc3)CCC1)NCC2)c1ncn[nH]1` (stereo not drawn) [Example 199, N-[2-({1-[1-(4-Chlorophenyl)cyclobutyl]-1,2,3,4-tetrahydroisoquinolin-7-yl}oxy)ethyl]-1H-1,2,4-triazole-5-sulfonamide], the Ki was at most 10 µM.

Take `Nc1n[nH]c(S(=O)(=O)NCCOc2ccc3c(c2)C(C2(c4ccc(Cl)cc4)CCC2)NCC3)n1` (stereo not drawn) [Example 203, 3-Amino-N-[2-({1-[1-(4-chlorophenyl)cyclobutyl]-1,2,3,4-tetrahydroisoquinolin-7-yl}oxy)ethyl]-1H-1,2,4-triazole-5-sulfonamide dihydrochloride]: the Ki was at most 100 µM.

Regarding `O=S(=O)(NCCOc1ccc2c(c1)C(C1(c3ccc(Cl)cc3)CCC1)NCC2)c1ncn[nH]1` (stereo not drawn) [Example 204, N-[2-({1-[1-(4-Chlorophenyl)cyclobutyl]-1,2,3,4-tetrahydroisoquinolin-7-yl}oxy)ethyl]-1H-1,2,4-triazole-5-sulfonamide], the Ki was at most 100 µM.
